Where two headings read alike, the source gives them in different places.
Legend:
Format in all cases: binding
SARS-CoV-2 gRNA = conditions: for target (unweighted spectral count of the protein in the RNP capture): LC-MS/MS, Probe I sample (first 199 lines of Table 2); for target (unweighted spectral count in RNP capture): Probe I capture, LC-MS/MS LFQ; for background (unweighted spectral count in control): no-probe control pull-down, used as background for Probe I
HCoV-OC43 gRNA and sgRNA = conditions: for target (unweighted spectral count): OC43 Probe II, infected cells; for target (unweighted spectral count) / target (unweighted spectral count, OC43 Probe II capture): tested against no-probe control; for target (unweighted spectral count, OC43 Probe II capture): FDR<10%; for target (unweighted spectral count, OC43 Probe II) / background (unweighted spectral count, no-probe control): type n_48_v, 48 hpi; for target (unweighted spectral count, OC43 Probe II): OC43 Probe II capture on infected cells; for background (unweighted spectral count, no-probe control): no-probe control on infected cells; for target (spectral count) / background (spectral count): type s_36_m, Probe II; for target (spectral count): HCoV-OC43-infected HCT-8 cells; for background (spectral count): uninfected-probe control
[1] = test system: SARS-CoV-2 gRNA and sgRNAs; conditions: for target (unweighted spectral count in RNP capture): Probe II capture, LC-MS/MS LFQ; for background (unweighted spectral count in control): no-probe control pull-down, used as background for Probe II
gRNA of HCoV-OC43 = conditions: for target (spectral count) / background (spectral count): type g_36_m, 36 hpi, Probe I; for target (spectral count): HCoV-OC43-infected HCT-8 cells; for background (spectral count): uninfected-probe control
[2] = type n_48_v: 48 hours post-infection, infected cells, OC43 Probe I, unweighted spectral count
[3] = type n_48_v: 48 hours post-infection, no-probe control on infected cells

Substance: GAPDM
- target (unweighted spectral count of the protein in the RNP capture) (SARS-CoV-2 gRNA): 7

Substance: KRT16
- target (unweighted spectral count) (HCoV-OC43 gRNA and sgRNA; 24 hpi (type n_24_v)): 22

Substance: SSRP1
- target (unweighted spectral count, OC43 Probe II capture) (HCoV-OC43 gRNA and sgRNA; 24 hpi, type n_24_v): 4

Substance: FXR2
- target (unweighted spectral count in RNP capture) ([1]; […]): 23
- background (unweighted spectral count in control) [1]: 1
- target (spectral count, OC43 Probe I RNP capture) (gRNA of HCoV-OC43; [2]): 7
- background (spectral count, no-probe control) (gRNA of HCoV-OC43; [3]): 1
- target (unweighted spectral count, OC43 Probe II capture) (HCoV-OC43 gRNA and sgRNA; 36 hpi, type n_36_v): 5
- target (unweighted spectral count, OC43 Probe II) (HCoV-OC43 gRNA and sgRNA): 7
- background (unweighted spectral count, no-probe control) (HCoV-OC43 gRNA and sgRNA): 1

Substance: ABCF1
- target (spectral count, OC43 Probe I RNP capture) (gRNA of HCoV-OC43; [2]): 7
- background (spectral count, no-probe control) (gRNA of HCoV-OC43; [3]): 1
- target (unweighted spectral count, OC43 Probe II) (HCoV-OC43 gRNA and sgRNA): 5
- background (unweighted spectral count, no-probe control) (HCoV-OC43 gRNA and sgRNA): 1

Substance: EIF4A1
- target (unweighted spectral count in RNP capture) ([1]; […]): 8
- background (unweighted spectral count in control) [1]: 1
- target (unweighted spectral count) (HCoV-OC43 gRNA and sgRNA; 24 hpi (type n_24_v)): 5

Substance: GAPDH
- target (unweighted spectral count in RNP capture) ([1]; […]): 12
- background (unweighted spectral count in control) [1]: 1

Substance: C19orf66
- target (unweighted spectral count, OC43 Probe II capture) (HCoV-OC43 gRNA and sgRNA; 36 hpi, type n_36_v): 4
- target (unweighted spectral count, OC43 Probe II) (HCoV-OC43 gRNA and sgRNA): 6
- background (unweighted spectral count, no-probe control) (HCoV-OC43 gRNA and sgRNA): 1

Substance: DDX39B
- target (spectral count, OC43 Probe I RNP capture) (gRNA of HCoV-OC43; [2]): 5
- background (spectral count, no-probe control) (gRNA of HCoV-OC43; [3]): 1
- target (unweighted spectral count, OC43 Probe II) (HCoV-OC43 gRNA and sgRNA): 6
- background (unweighted spectral count, no-probe control) (HCoV-OC43 gRNA and sgRNA): 1

Substance: HSPA1B
- target (unweighted spectral count, OC43 Probe II capture) (HCoV-OC43 gRNA and sgRNA; 36 hpi, type n_36_v): 4

Substance: ZFR
- target (unweighted spectral count, OC43 Probe II capture) (HCoV-OC43 gRNA and sgRNA; 24 hpi, type n_24_v): 4
- target (unweighted spectral count, OC43 Probe II) (HCoV-OC43 gRNA and sgRNA): 6
- background (unweighted spectral count, no-probe control) (HCoV-OC43 gRNA and sgRNA): 1

Substance: HSPB1
- target (unweighted spectral count in RNP capture) (SARS-CoV-2 gRNA): 5
- background (unweighted spectral count in control) (SARS-CoV-2 gRNA): 1

Substance: AKAP8
- target (unweighted spectral count, OC43 Probe II capture) (HCoV-OC43 gRNA and sgRNA; 36 hpi, type n_36_v): 4

Substance: EZR
- target (unweighted spectral count in RNP capture) (SARS-CoV-2 gRNA): 5
- background (unweighted spectral count in control) (SARS-CoV-2 gRNA): 1

Substance: YP_009725304.1
- target (unweighted spectral count in RNP capture) (SARS-CoV-2 gRNA): 5
- background (unweighted spectral count in control) (SARS-CoV-2 gRNA): 1

Substance: KHDRBS1: host protein, UniProt Q07666
- target (spectral count) (gRNA of HCoV-OC43): 13
- background (spectral count) (gRNA of HCoV-OC43): 2
- target (unweighted spectral count, OC43 Probe II capture) (HCoV-OC43 gRNA and sgRNA; 36 hpi, type n_36_v): 12
- target (unweighted spectral count) (HCoV-OC43 gRNA and sgRNA; 24 hpi (type n_24_v)): 10
- target (unweighted spectral count, OC43 Probe II) (HCoV-OC43 gRNA and sgRNA): 14
- background (unweighted spectral count, no-probe control) (HCoV-OC43 gRNA and sgRNA): 1
- target (spectral count) (HCoV-OC43 gRNA and sgRNA; 36 hpi): 12
- background (spectral count) (HCoV-OC43 gRNA and sgRNA; 36 hpi): 2

Substance: YBX2: host protein, UniProt Q9Y2T7
- target (unweighted spectral count, OC43 Probe II capture) (HCoV-OC43 gRNA and sgRNA; 36 hpi, type n_36_v): 9
- target (unweighted spectral count, OC43 Probe II) (HCoV-OC43 gRNA and sgRNA): 8
- background (unweighted spectral count, no-probe control) (HCoV-OC43 gRNA and sgRNA): 1
- target (spectral count) (HCoV-OC43 gRNA and sgRNA; 36 hpi): 9
- background (spectral count) (HCoV-OC43 gRNA and sgRNA; 36 hpi): 1

Substance: TUBB4B
- target (unweighted spectral count of the protein in the RNP capture experiment) ([1]; […], LC-MS/MS label-free quantification, probe pool not given): 6
- back-ground (unweighted spectral count of the protein in the control experiment) ([1]; protein background of the control (e.g. no-probe) experiment, […]): 1

Substance: FAM125A
- target (unweighted spectral count in RNP capture) ([1]; […]): 97

Substance: SQSTM1: host protein, UniProt Q13501
- target (unweighted spectral count in RNP capture) ([1]; […]): 19
- background (unweighted spectral count in control) [1]: 1
- target (spectral count) (gRNA of HCoV-OC43): 7
- background (spectral count) (gRNA of HCoV-OC43): 1

Substance: HELZ2: host protein, UniProt Q9BYK8
- target (spectral count) (gRNA of HCoV-OC43): 11
- background (spectral count) (gRNA of HCoV-OC43): 1
- target (spectral count, OC43 Probe I RNP capture) (gRNA of HCoV-OC43; [2]): 8
- background (spectral count, no-probe control) (gRNA of HCoV-OC43; [3]): 1
- target (unweighted spectral count, OC43 Probe II capture) (HCoV-OC43 gRNA and sgRNA; 36 hpi, type n_36_v): 16
- target (unweighted spectral count, OC43 Probe II) (HCoV-OC43 gRNA and sgRNA): 20
- background (unweighted spectral count, no-probe control) (HCoV-OC43 gRNA and sgRNA): 1
- target (spectral count) (HCoV-OC43 gRNA and sgRNA; 36 hpi): 16
- background (spectral count) (HCoV-OC43 gRNA and sgRNA; 36 hpi): 1

Substance: ESYT1
- target (unweighted spectral count, OC43 Probe II capture) (HCoV-OC43 gRNA and sgRNA; 36 hpi, type n_36_v): 4

Substance: ENO1
- target (unweighted spectral count in RNP capture) ([1]; […]): 22
- background (unweighted spectral count in control) [1]: 4

Substance: CCAR2: host protein, UniProt Q8N163
- target (spectral count) (gRNA of HCoV-OC43): 20
- background (spectral count) (gRNA of HCoV-OC43): 1
- target (spectral count, OC43 Probe I RNP capture) (gRNA of HCoV-OC43; [2]): 23
- background (spectral count, no-probe control) (gRNA of HCoV-OC43; [3]): 1
- target (unweighted spectral count, OC43 Probe II capture) (HCoV-OC43 gRNA and sgRNA; 36 hpi, type n_36_v): 12
- target (unweighted spectral count) (HCoV-OC43 gRNA and sgRNA; 24 hpi (type n_24_v)): 8
- target (unweighted spectral count, OC43 Probe II) (HCoV-OC43 gRNA and sgRNA): 20
- background (unweighted spectral count, no-probe control) (HCoV-OC43 gRNA and sgRNA): 1
- target (spectral count) (HCoV-OC43 gRNA and sgRNA; 36 hpi): 12
- background (spectral count) (HCoV-OC43 gRNA and sgRNA; 36 hpi): 1

Substance: KHORBS1
- target (unweighted spectral count of the protein in the RNP capture) (SARS-CoV-2 gRNA): 19

Substance: PLEC
- target (unweighted spectral count, OC43 Probe II) (HCoV-OC43 gRNA and sgRNA): 6
- background (unweighted spectral count, no-probe control) (HCoV-OC43 gRNA and sgRNA): 1

Substance: PRRC2A: host protein, UniProt P48634
- target (spectral count) (gRNA of HCoV-OC43): 12
- background (spectral count) (gRNA of HCoV-OC43): 1
- target (spectral count, OC43 Probe I RNP capture) (gRNA of HCoV-OC43; [2]): 9
- background (spectral count, no-probe control) (gRNA of HCoV-OC43; [3]): 1
- target (unweighted spectral count, OC43 Probe II capture) (HCoV-OC43 gRNA and sgRNA; 36 hpi, type n_36_v): 10
- target (unweighted spectral count) (HCoV-OC43 gRNA and sgRNA; 24 hpi (type n_24_v)): 8
- target (unweighted spectral count, OC43 Probe II) (HCoV-OC43 gRNA and sgRNA): 9
- background (unweighted spectral count, no-probe control) (HCoV-OC43 gRNA and sgRNA): 1

Substance: MPG
- target (unweighted spectral count) (HCoV-OC43 gRNA and sgRNA; 12 hpi (type n_12_v)): 4

Substance: NSP8
- background (spectral count, no-probe control) (gRNA of HCoV-OC43): 1
- target (spectral count, OC43 Probe I RNP capture) (gRNA of HCoV-OC43): 5

From patent publication US20230407373A1 (priority 2020, published 2023)
